Results from article PMC6321601 (Molecules, 2018).

Experiments:
[1] = tested on: L-O2 human normal liver cells; assay: MTT assay, toxicity against L-O2 normal cells; format: cell-based; conditions: Homo sapiens, 72 h incubation, mean of three independent experiments
Procedure: (§1) HepG-2 human hepatocellular carcinoma cells and L-O2 human normal liver cells were maintained in DMEM culture medium supplemented with 10% FBS at 37 °C under a humidified atmosphere with 5% CO2.
(§2) HepG-2 and L-O2 cells in logarithmic growth phase were seeded into a 96-well plate at 5 × 10^3/well/200 µL. After 12 h, compounds at different concentrations were added and incubated for 72 h at 37 °C, 5% CO2. Then, 20 µL MTT (5 mg/mL) was added into each well and incubated for 4 h. The supernatant was discarded, and the precipitate was dissolved with DMSO. The absorbance of the optical density (OD) at 570 nm was detected using a microplate reader and the IC50 was calculated with GraphPad Prism 5.

[2] = tested on: HepG-2 human hepatocellular carcinoma cells; assay: MTT assay, proliferation of HepG-2 cells; format: cell-based; conditions: Homo sapiens, HepG2, 72 h incubation, mean of three independent experiments
Procedure: as §1, §2

| SMILES | IC50 [1] | IC50 [2] |
| --- | --- | --- |
| COc1cccc2c1C(=O)c1c(O)c3c(c(O)c1C2=O)C[C@@](O)(C(=O)CO)C[C@@H]3O[C@H]1C[C@H](N)[C@H](O)[C@H](C)O1 [ADR, adriamycin, reference compound] | 41 ± 13 nM | 300 ± 50 nM |
| CCC(=O)O[C@@H]1C[C@@]2(C)C3CC=C4C(C[C@H](O)C(=O)C4(C)C)[C@]3(C)C(=O)C[C@]2(C)C1[C@@](C)(O)C(=O)/C=C/C(C)(C)OC(C)=O (stereo partly drawn) [Compound 3a, (2S,9R,13R,14S,16R)-17-((R,E)-6-Acetoxy-2-hydroxy-6-methyl-3-oxohept-4-en-2-yl)-2-hydroxy-4,4,9,13,14-pentamethyl-3,11-dioxo-2,3,4,7,8,9,10,11,12,13,14,15,16,17-tetradecahydro-1H-cyclopenta[a]phenanthren-16-yl propionate] | 1020 ± 580 nM | 1010 ± 40 nM |
| CC(=O)OC(C)(C)/C=C/C(=O)[C@](C)(O)C1[C@H](OC(=O)C2CCC2)C[C@@]2(C)C3CC=C4C(CC(O)C(=O)C4(C)C)[C@]3(C)C(=O)C[C@]12C (stereo partly drawn) [Compound 3b, (9R,13R,14S,16R)-17-((R,E)-6-Acetoxy-2-hydroxy-6-methyl-3-oxohept-4-en-2-yl)-2-hydroxy-4,4,9,13,14-pentamethyl-3,11-dioxo-2,3,4,7,8,9,10,11,12,13,14,15,16,17-tetradecahydro-1H-cyclopenta[a]phenanthren-16-yl cyclobutanecarboxylate] | 520 ± 80 nM | 540 ± 40 nM |
| CC(=O)OC(C)(C)/C=C/C(=O)[C@](C)(O)C1[C@H](OC(=O)C2CCCC2)C[C@@]2(C)C3CC=C4C(C[C@H](O)C(=O)C4(C)C)[C@]3(C)C(=O)C[C@]12C (stereo partly drawn) [Compound 3c, (2S,9R,13R,14S,16R)-17-((R,E)-6-Acetoxy-2-hydroxy-6-methyl-3-oxohept-4-en-2-yl)-2-hydroxy-4,4,9,13,14-pentamethyl-3,11-dioxo-2,3,4,7,8,9,10,11,12,13,14,15,16,17-tetradecahydro-1H-cyclopenta[a]phenanthren-16-yl cyclopentanecarboxylate] | 2370 ± 90 nM | 2450 ± 1750 nM |
| CC(=O)OC(C)(C)/C=C/C(=O)[C@](C)(O)C1[C@H](OC(=O)CCCCNC(=O)OC(C)(C)C)C[C@@]2(C)C3CC=C4C(C[C@H](O)C(=O)C4(C)C)[C@]3(C)C(=O)C[C@]12C (stereo partly drawn) [Compound 3d, (2S,9R,13R,14S,16R)-17-((R,E)-6-Acetoxy-2-hydroxy-6-methyl-3-oxohept-4-en-2-yl)-2-hydroxy-4,4,9,13,14-pentamethyl-3,11-dioxo-2,3,4,7,8,9,10,11,12,13,14,15,16,17-tetradecahydro-1H-cyclopenta[a]phenanthren-16-yl 5-((tert-butoxycarbonyl)amino)pentanoate] | 8010 ± 470 nM | 4890 ± 920 nM |
| CC(=O)OC(C)(C)/C=C/C(=O)[C@](C)(O)C1[C@H](OC(=O)CCCCN(C)C(=O)OC(C)(C)C)C[C@@]2(C)C3CC=C4C(C[C@H](O)C(=O)C4(C)C)[C@]3(C)C(=O)C[C@]12C (stereo partly drawn) [Compound 3e, (2S,9R,13R,14S,16R)-17-((R,E)-6-Acetoxy-2-hydroxy-6-methyl-3-oxohept-4-en-2-yl)-2-hydroxy-4,4,9,13,14-pentamethyl-3,11-dioxo-2,3,4,7,8,9,10,11,12,13,14,15,16,17-tetradecahydro-1H-cyclopenta[a]phenanthren-16-yl 5-((tert-butoxycarbonyl)(methyl)amino)pentanoate] | 5500 ± 2480 nM | 9280 ± 370 nM |
| CC(=O)OC(C)(C)/C=C/C(=O)[C@](C)(O)C1[C@H](OC(=O)CCCN(C)C(=O)OC(C)(C)C)C[C@@]2(C)C3CC=C4C(C[C@H](O)C(=O)C4(C)C)[C@]3(C)C(=O)C[C@]12C (stereo partly drawn) [Compound 3f, (2S,9R,13R,14S,16R)-17-((R,E)-6-Acetoxy-2-hydroxy-6-methyl-3-oxohept-4-en-2-yl)-2-hydroxy-4,4,9,13,14-pentamethyl-3,11-dioxo-2,3,4,7,8,9,10,11,12,13,14,15,16,17-tetradecahydro-1H-cyclopenta[a]phenanthren-16-yl 4-((tert-butoxycarbonyl)(methyl)amino)butanoate] | 410 ± 110 nM | 930 ± 60 nM |
| CC(=O)OC(C)(C)/C=C/C(=O)[C@](C)(O)C1[C@H](OC(=O)CCc2ccccc2NC(=O)OC(C)(C)C)C[C@@]2(C)C3CC=C4C(C[C@H](O)C(=O)C4(C)C)[C@]3(C)C(=O)C[C@]12C (stereo partly drawn) [Compound 3g, (2S,9R,13R,14S,16R)-17-((R,E)-6-Acetoxy-2-hydroxy-6-methyl-3-oxohept-4-en-2-yl)-2-hydroxy-4,4,9,13,14-pentamethyl-3,11-dioxo-2,3,4,7,8,9,10,11,12,13,14,15,16,17-tetradecahydro-1H-cyclopenta[a]phenanthren-16-yl 3-(2-((tert-butoxycarbonyl)amino)phenyl)propanoate] | 42 ± 1 nM | 220 ± 110 nM |
| CC(=O)OC(C)(C)/C=C/C(=O)[C@](C)(O)C1[C@H](OC(=O)c2ccc(C)cc2)C[C@@]2(C)C3CC=C4C(C[C@H](O)C(=O)C4(C)C)[C@]3(C)C(=O)C[C@]12C (stereo partly drawn) [Compound 3h, (2S,9R,13R,14S,16R)-17-((R,E)-6-Acetoxy-2-hydroxy-6-methyl-3-oxohept-4-en-2-yl)-2-hydroxy-4,4,9,13,14-pentamethyl-3,11-dioxo-2,3,4,7,8,9,10,11,12,13,14,15,16,17-tetradecahydro-1H-cyclopenta[a]phenanthren-16-yl 4-methylbenzoate] | 6900 ± 1370 nM | 9620 ± 1340 nM |
| CC(=O)OC(C)(C)/C=C/C(=O)[C@](C)(O)C1[C@H](OC(=O)c2ccc(F)cc2)C[C@@]2(C)C3CC=C4C(C[C@H](O)C(=O)C4(C)C)[C@]3(C)C(=O)C[C@]12C (stereo partly drawn) [Compound 3i, (2S,9R,13R,14S,16R)-17-((R,E)-6-Acetoxy-2-hydroxy-6-methyl-3-oxohept-4-en-2-yl)-2-hydroxy-4,4,9,13,14-pentamethyl-3,11-dioxo-2,3,4,7,8,9,10,11,12,13,14,15,16,17-tetradecahydro-1H-cyclopenta[a]phenanthren-16-yl 4-fluorobenzoate] | 4420 ± 970 nM | 7420 ± 400 nM |
| CC(=O)OC(C)(C)/C=C/C(=O)[C@](C)(O)C1[C@H](OC(=O)c2ccc(Cl)cc2)C[C@@]2(C)C3CC=C4C(C[C@H](O)C(=O)C4(C)C)[C@]3(C)C(=O)C[C@]12C (stereo partly drawn) [Compound 3j, (2S,9R,13R,14S,16R)-17-((R,E)-6-Acetoxy-2-hydroxy-6-methyl-3-oxohept-4-en-2-yl)-2-hydroxy-4,4,9,13,14-pentamethyl-3,11-dioxo-2,3,4,7,8,9,10,11,12,13,14,15,16,17-tetradecahydro-1H-cyclopenta[a]phenanthren-16-yl 4-chlorobenzoate] | 3570 ± 2580 nM | 4670 ± 280 nM |
| CC(=O)OC(C)(C)/C=C/C(=O)[C@](C)(O)C1[C@H](OC(=O)c2ccc(Br)cc2)C[C@@]2(C)C3CC=C4C(C[C@H](O)C(=O)C4(C)C)[C@]3(C)C(=O)C[C@]12C (stereo partly drawn) [Compound 3k, (2S,9R,13R,14S,16R)-17-((R,E)-6-Acetoxy-2-hydroxy-6-methyl-3-oxohept-4-en-2-yl)-2-hydroxy-4,4,9,13,14-pentamethyl-3,11-dioxo-2,3,4,7,8,9,10,11,12,13,14,15,16,17-tetradecahydro-1H-cyclopenta[a]phenanthren-16-yl 4-bromobenzoate] | 1930 ± 320 nM | 2990 ± 2060 nM |
| COc1ccc(C(=O)O[C@@H]2C[C@@]3(C)C4CC=C5C(C[C@H](O)C(=O)C5(C)C)[C@]4(C)C(=O)C[C@]3(C)C2[C@@](C)(O)C(=O)/C=C/C(C)(C)OC(C)=O)cc1 (stereo partly drawn) [Compound 3l, (2S,9R,13R,14S,16R)-17-((R,E)-6-Acetoxy-2-hydroxy-6-methyl-3-oxohept-4-en-2-yl)-2-hydroxy-4,4,9,13,14-pentamethyl-3,11-dioxo-2,3,4,7,8,9,10,11,12,13,14,15,16,17-tetradecahydro-1H-cyclopenta[a]phenanthren-16-yl 4-methoxybenzoate] | 2470 ± 470 nM | 3710 ± 1690 nM |
| CC(=O)OC(C)(C)/C=C/C(=O)[C@](C)(O)C1[C@H](OC(=O)c2ccc([N+](=O)[O-])cc2)C[C@@]2(C)C3CC=C4C(C[C@H](O)C(=O)C4(C)C)[C@]3(C)C(=O)C[C@]12C (stereo partly drawn) [Compound 3m, (2S,9R,13R,14S,16R)-17-((R,E)-6-Acetoxy-2-hydroxy-6-methyl-3-oxohept-4-en-2-yl)-2-hydroxy-4,4,9,13,14-pentamethyl-3,11-dioxo-2,3,4,7,8,9,10,11,12,13,14,15,16,17-tetradecahydro-1H-cyclopenta[a]phenanthren-16-yl 4-nitrobenzoate] | 740 ± 150 nM | 920 ± 440 nM |
| CC(=O)OC(C)(C)/C=C/C(=O)[C@](C)(O)C1[C@H](OC(=O)c2cccc(F)c2)C[C@@]2(C)C3CC=C4C(C[C@H](O)C(=O)C4(C)C)[C@]3(C)C(=O)C[C@]12C (stereo partly drawn) [Compound 3n, (2S,9R,13R,14S,16R)-17-((R,E)-6-Acetoxy-2-hydroxy-6-methyl-3-oxohept-4-en-2-yl)-2-hydroxy-4,4,9,13,14-pentamethyl-3,11-dioxo-2,3,4,7,8,9,10,11,12,13,14,15,16,17-tetradecahydro-1H-cyclopenta[a]phenanthren-16-yl 3-fluorobenzoate] | 2480 ± 520 nM | 4050 ± 1390 nM |
| CC(=O)OC(C)(C)/C=C/C(=O)[C@](C)(O)C1[C@H](OC(=O)C=Cc2ccccc2)C[C@@]2(C)C3CC=C4C(C[C@H](O)C(=O)C4(C)C)[C@]3(C)C(=O)C[C@]12C (stereo partly drawn) [Compound 3o, (2S,9R,13R,14S,16R)-17-((R,E)-6-Acetoxy-2-hydroxy-6-methyl-3-oxohept-4-en-2-yl)-2-hydroxy-4,4,9,13,14-pentamethyl-3,11-dioxo-2,3,4,7,8,9,10,11,12,13,14,15,16,17-tetradecahydro-1H-cyclopenta[a]phenanthren-16-yl cinnamate] | 9590 ± 2380 nM | 3310 ± 240 nM |
